The record followed here is patent US20230234962A1, “OXA-AZASPIRO DERIVATIVE, AND PREPARATION METHOD THEREFOR AND PHARMACEUTICAL USE THEREOF” (priority 2020, published 2023).

What all share (type): biochemical
The target in test [1] is PI3Kδ enzyme (Homo sapiens, UniProt O00329). Briefly: ADP-Glo kinase assay, inhibition of PI3Kδ enzyme. How it is done:
(§1) In this experiment, an ADP-Glo™ kinase assay kit is used. A substrate is phosphorylated under the action of enzyme, and ADP is generated at the same time. An ADP-Glo Reagent is added to remove unreacted ATP in the reaction system, and the ADP generated by the reaction is detected by a kinase detection reagent. In the presence of a compound, the inhibition rate of the compound is calculated by measuring the signal value.
(§2) Test compounds were each subjected to 3-fold dilution from a starting concentration of 10000 nM to obtain 11 concentrations, and duplicate wells were set for the test. Gradient dilution to a corresponding 100-fold final concentration in a 384-well plate was performed to obtain solutions with 11 different concentrations. 50 nL of each solution was transferred to compound wells of a 384-well plate with Echo; negative control wells were added with 50 nL of DMSO. A kinase solution with a 2-fold final concentration was prepared using 1×kinase buffer. 2.5 μL of the kinase solution with a 2-fold final concentration was added to the compound wells; 2.5 μL of the 1× kinase buffer was added to the negative control wells. The mixture was centrifuged at 1000 rpm for 30 s, mixed well by shaking, and then incubated at room temperature for 10 min. A mixed solution of ATP and substrate P1P2 with a 2-fold final concentration was prepared using 1× kinase buffer. The reaction was initiated by adding 2.5 μL of the mixed solution of ATP and substrate with a 2-fold final concentration. The mixture in the 384-well plate was centrifuged at 1000 rpm for 30 s, mixed well by shaking, and then reacted at room temperature for 120 min. 5 μL of ADP-Glo reagent was added, and the mixture was centrifuged at 1000 rpm for 30 s, mixed well by shaking, and then incubated at room temperature for 40 min. 10 μL of kinase detection reagent was added, and the resulting mixture was centrifuged at 1000 rpm for 30 s, mixed well by shaking, and then incubated at room temperature for 30 min. The luminescence RLU was read with an Envision microplate reader.
(§3) IC50 values for the inhibitory activity of the compounds were calculated using Graphpad Prism software.
For orientation: ADP-Glo turns the ADP formed in a reaction into a luminescent signal.

The target of test [2] is PI3Kβ enzyme (Homo sapiens, UniProt P42338). Briefly: ADP-Glo kinase assay, selectivity, PI3Kβ enzyme. As to conditions: 11 concentrations from 10000 nM. The method, then: as §1, §2, §3
PI3Kβ enzyme, sequence (P27986 whole entry): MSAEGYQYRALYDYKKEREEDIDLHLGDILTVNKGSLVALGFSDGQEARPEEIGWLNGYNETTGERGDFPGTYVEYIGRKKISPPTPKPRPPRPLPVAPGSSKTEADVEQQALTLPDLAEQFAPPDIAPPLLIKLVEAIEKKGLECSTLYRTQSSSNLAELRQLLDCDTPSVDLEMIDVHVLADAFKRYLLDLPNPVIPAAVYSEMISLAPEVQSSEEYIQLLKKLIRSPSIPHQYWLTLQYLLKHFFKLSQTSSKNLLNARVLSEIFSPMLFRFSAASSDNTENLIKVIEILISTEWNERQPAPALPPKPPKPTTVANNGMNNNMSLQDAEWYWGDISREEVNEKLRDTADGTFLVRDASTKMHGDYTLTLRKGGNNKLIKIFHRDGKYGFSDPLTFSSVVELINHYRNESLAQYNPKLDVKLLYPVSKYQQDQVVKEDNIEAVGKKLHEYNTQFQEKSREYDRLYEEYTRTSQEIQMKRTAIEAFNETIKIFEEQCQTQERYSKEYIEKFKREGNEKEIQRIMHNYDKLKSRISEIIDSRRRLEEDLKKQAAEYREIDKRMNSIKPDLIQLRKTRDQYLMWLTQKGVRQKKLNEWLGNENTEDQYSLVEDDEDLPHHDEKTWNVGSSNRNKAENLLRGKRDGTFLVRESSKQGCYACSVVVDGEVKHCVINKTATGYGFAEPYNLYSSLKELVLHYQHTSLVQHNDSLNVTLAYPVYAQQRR
PI3Kβ enzyme, sequence (P42338 whole entry): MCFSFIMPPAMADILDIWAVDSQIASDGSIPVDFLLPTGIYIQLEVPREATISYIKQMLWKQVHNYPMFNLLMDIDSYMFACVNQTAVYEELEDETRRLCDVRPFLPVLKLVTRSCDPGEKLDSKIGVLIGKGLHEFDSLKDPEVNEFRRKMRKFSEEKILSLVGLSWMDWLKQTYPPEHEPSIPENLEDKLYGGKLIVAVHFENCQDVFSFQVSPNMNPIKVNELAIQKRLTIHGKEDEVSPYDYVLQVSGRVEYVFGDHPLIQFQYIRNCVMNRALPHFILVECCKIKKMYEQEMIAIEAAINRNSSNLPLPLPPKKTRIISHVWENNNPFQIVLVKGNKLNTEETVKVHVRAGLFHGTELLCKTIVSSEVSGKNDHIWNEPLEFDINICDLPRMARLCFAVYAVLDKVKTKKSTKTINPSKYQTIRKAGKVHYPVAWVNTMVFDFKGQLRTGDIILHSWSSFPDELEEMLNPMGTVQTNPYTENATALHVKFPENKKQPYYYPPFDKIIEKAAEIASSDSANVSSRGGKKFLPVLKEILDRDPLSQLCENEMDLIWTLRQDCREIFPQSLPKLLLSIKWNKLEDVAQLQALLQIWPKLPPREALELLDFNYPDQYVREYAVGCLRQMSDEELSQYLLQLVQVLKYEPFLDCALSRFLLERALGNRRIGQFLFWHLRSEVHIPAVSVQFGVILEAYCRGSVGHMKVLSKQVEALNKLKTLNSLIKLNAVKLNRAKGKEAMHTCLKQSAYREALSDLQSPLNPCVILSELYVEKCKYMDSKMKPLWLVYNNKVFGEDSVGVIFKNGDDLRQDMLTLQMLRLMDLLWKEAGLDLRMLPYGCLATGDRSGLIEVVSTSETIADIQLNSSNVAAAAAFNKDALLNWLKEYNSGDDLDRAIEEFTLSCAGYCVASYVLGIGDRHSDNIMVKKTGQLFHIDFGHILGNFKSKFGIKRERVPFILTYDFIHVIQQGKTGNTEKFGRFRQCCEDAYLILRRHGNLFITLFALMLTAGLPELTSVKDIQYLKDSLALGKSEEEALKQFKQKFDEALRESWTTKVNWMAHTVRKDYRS
Test [3] deals with PI3Kα enzyme (Homo sapiens, UniProt P42336). Briefly: ADP-Glo kinase assay, selectivity, PI3Kα enzyme. As to conditions: 11 concentrations from 10000 nM. The method, then:
as §1, §2, §3

The target of test [4] is PI3Kγ enzyme (Homo sapiens, UniProt P48736). Description: ADP-Glo kinase assay, selectivity, PI3Kγ enzyme. As to conditions: 11 concentrations from 10000 nM. How it is done:
as §1, §2, §3

The mark [5] stands for this setting: ADP-Glo, PIK3CD/PIK3R1, 11 concentrations from 10000 nM, read-out: PI3Kδ enzyme IC50.

Like-named read-outs stand apart in the source and are kept apart here.

The term IC50 denotes the point on the concentration scale where inhibition reaches its midpoint.

PI3Kα enzyme, sequence (P42336 whole entry): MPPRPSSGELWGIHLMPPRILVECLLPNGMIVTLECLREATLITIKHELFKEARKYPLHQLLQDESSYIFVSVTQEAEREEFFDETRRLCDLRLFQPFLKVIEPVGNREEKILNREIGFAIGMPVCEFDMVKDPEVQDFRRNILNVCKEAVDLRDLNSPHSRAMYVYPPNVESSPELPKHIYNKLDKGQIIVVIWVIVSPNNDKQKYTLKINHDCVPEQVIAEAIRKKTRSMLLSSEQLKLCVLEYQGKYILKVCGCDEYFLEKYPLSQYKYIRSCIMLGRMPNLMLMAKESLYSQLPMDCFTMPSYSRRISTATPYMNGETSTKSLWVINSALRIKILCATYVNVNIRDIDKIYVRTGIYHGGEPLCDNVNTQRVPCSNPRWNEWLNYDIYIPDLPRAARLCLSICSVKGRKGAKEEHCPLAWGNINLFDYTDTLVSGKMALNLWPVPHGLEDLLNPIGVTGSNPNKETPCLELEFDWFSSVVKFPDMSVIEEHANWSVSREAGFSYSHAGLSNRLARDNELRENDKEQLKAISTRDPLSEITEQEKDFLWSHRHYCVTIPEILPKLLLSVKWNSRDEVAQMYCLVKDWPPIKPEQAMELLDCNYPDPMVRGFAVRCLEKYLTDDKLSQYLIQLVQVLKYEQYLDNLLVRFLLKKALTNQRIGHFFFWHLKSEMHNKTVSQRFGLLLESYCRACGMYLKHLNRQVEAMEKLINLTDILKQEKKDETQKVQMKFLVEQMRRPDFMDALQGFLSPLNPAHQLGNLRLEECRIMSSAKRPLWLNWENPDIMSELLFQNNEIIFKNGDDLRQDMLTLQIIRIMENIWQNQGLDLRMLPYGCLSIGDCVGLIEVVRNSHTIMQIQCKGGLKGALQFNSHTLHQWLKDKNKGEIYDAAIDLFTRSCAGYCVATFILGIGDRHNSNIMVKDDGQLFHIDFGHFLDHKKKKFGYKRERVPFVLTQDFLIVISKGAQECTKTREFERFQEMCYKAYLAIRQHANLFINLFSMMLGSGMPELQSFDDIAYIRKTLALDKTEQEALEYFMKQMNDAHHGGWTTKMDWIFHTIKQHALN
PI3Kα enzyme, sequence (P27986 whole entry, further chain): as the sequence (P27986 whole entry) above
PI3Kδ enzyme, sequence (O00329 whole entry): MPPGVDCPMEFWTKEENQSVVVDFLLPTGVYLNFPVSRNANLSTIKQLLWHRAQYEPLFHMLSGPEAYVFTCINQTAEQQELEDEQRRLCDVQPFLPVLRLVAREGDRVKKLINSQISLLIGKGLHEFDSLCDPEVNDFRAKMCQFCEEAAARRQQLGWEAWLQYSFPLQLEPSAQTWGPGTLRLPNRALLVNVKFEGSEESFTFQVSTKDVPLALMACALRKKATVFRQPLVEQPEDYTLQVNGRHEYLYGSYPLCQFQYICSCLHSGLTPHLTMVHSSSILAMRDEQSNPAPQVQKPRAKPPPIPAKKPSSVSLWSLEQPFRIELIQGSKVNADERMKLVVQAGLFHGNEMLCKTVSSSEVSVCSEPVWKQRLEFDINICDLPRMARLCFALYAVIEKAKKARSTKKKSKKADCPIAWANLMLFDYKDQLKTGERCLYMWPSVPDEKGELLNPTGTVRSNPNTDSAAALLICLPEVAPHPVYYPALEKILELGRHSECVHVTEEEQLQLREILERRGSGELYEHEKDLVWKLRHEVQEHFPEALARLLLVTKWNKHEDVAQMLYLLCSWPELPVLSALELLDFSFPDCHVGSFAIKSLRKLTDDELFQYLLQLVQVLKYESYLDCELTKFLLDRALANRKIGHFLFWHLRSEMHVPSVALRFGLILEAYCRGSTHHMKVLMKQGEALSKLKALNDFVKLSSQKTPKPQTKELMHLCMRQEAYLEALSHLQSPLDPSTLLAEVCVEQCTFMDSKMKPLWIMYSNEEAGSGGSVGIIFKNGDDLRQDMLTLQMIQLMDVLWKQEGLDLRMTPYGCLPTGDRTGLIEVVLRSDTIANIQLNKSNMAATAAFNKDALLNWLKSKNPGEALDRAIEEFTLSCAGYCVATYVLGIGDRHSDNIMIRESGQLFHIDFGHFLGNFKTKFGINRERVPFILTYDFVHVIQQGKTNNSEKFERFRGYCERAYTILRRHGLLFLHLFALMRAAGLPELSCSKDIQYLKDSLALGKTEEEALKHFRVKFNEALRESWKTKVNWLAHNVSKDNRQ
PI3Kδ enzyme, sequence (P27986 whole entry partner): as the sequence (P27986 whole entry) above
PI3Kγ enzyme, sequence (P48736 whole entry): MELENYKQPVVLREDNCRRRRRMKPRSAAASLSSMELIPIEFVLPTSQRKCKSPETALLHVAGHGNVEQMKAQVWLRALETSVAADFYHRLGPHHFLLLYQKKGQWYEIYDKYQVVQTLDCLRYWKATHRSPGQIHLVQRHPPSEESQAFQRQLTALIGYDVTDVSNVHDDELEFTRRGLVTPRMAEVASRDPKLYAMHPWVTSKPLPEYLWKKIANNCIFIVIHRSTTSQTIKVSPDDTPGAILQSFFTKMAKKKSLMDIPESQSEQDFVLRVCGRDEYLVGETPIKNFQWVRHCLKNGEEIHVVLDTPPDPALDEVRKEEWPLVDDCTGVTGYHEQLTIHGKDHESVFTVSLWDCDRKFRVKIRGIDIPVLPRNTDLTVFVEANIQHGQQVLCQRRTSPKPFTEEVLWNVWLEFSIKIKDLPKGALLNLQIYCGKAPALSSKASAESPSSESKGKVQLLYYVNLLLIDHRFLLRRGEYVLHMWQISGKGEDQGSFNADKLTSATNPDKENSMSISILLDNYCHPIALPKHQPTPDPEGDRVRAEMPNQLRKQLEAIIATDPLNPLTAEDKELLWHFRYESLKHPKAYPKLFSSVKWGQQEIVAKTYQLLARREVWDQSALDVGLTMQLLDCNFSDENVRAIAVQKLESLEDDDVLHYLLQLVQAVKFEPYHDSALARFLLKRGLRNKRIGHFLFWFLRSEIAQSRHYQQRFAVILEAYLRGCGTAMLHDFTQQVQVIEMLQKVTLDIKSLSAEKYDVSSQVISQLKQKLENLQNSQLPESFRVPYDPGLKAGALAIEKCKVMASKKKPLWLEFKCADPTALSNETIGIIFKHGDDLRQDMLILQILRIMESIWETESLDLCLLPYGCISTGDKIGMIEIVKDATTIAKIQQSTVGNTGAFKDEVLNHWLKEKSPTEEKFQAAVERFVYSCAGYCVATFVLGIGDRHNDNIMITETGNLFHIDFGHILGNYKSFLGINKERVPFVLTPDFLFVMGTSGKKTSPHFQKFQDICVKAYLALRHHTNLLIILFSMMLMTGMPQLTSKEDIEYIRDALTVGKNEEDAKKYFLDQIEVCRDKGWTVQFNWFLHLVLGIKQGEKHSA

The compound `O=C(c1nn(-c2ccc(CN3CCOCC3)cc2)c2c1CS(=O)(=O)c1c(F)cccc1-2)N1CCOCC12CC2` [Control Example 10, (6-fluoro-1-(4-(morpholinomethyl)phenyl)-5,5-dioxido-1,4-dihydrothiochromeno[4,3-c]pyrazol-3-yl)(7-oxa-4-azaspiro[2.5]octan-4-yl)methanone, reference compound] yielded an IC50 in test [1] greater than 10 µM.

With `O=C(c1nn(-c2ccc(CN3CCOCC3)cc2)c2c1CS(=O)(=O)c1c(F)cccc1-2)N1CCOC2(CC2)C1` [Example 1, (6-fluoro-1-(4-(morpholinomethyl)phenyl)-5,5-dioxido-1,4-dihydrothiochromeno[4,3-c]pyrazol-3-yl)(4-oxa-7-azaspiro[2.5]octan-7-yl)methanone], the IC50 turned out to be 0.013 µM in test [1], 1.32 µM in test [2], 0.468 µM in test [3] and 6.21 µM in test [4].

With `O=C(c1nn(-c2ccc(CN3CCOCC3)cc2)c2c1CS(=O)(=O)c1c(Cl)cccc1-2)N1CCOC2(CC2)C1` [Example 2, (6-chloro-1-(4-(morpholinomethyl)phenyl)-5,5-dioxido-1,4-dihydrothiochromeno[4,3-c]pyrazol-3-yl)(4-oxa-7-azaspiro[2.5]octan-7-yl)methanone], the IC50 in test [1] (setting [5]) came to 0.0184 µM.

`COc1cccc2c1-c1c(c(C(=O)N3CCOC4(CC4)C3)nn1-c1ccc(CN3CCOCC3)cc1)CS2(=O)=O` [Example 3, (9-methoxy-1-(4-(morpholinomethyl)phenyl)-5,5-dioxido-1,4-dihydrothiochromeno[4,3-c]pyrazol-3-yl)(4-oxa-7-azaspiro[2.5]octan-7-yl)methanone]: in test [1] (setting [5]), the IC50 was 0.0056 µM.

As for `COc1ccc2c(c1)S(=O)(=O)Cc1c(C(=O)N3CCOC4(CC4)C3)nn(-c3ccc(CN4CCOCC4)cc3)c1-2` [Example 4, (7-methoxy-1-(4-(morpholinomethyl)phenyl)-5,5-dioxido-1,4-dihydrothiochromeno[4,3-c]pyrazol-3-yl)(4-oxa-7-azaspiro[2.5]octan-7-yl)methanone], the 50% inhibitory concentration (IC50) in test [1] (setting [5]) was 0.0079 µM.

On to `COc1cccc2c1S(=O)(=O)Cc1c(C(=O)N3CCOC4(CC4)C3)nn(-c3ccc(CN4CCOCC4)cc3)c1-2` [Example 5, (6-methoxy-1-(4-(morpholinomethyl)phenyl)-5,5-dioxido-1,4-dihydrothiochromeno[4,3-c]pyrazol-3-yl)(4-oxa-7-azaspiro[2.5]octan-7-yl)methanone], for which the IC50 in test [1] was 0.019 µM; in test [2], 2.79 µM; in test [3], 2.33 µM; in test [4] it was greater than 10 µM.

Take `Cc1cccc2c1S(=O)(=O)Cc1c(C(=O)N3CCOC4(CC4)C3)nn(-c3ccc(CN4CCOCC4)cc3)c1-2` [Example 6, (6-methyl-1-(4-(morpholinomethyl)phenyl)-5,5-dioxido-1,4-dihydrothiochromeno[4,3-c]pyrazol-3-yl)(4-oxa-7-azaspiro[2.5]octan-7-yl)methanone]: the IC50 in test [1] is 0.068 µM; in test [2] it was 7.06 µM; in test [3] it was 2.57 µM; in test [4] it was greater than 10 µM.

`O=C(c1nn(-c2ccc(CN3CCOCC3)cc2)c2c1CS(=O)(=O)c1cc(Cl)ccc1-2)N1CCOC2(CC2)C1` [Example 7, (7-chloro-1-(4-(morpholinomethyl)phenyl)-5,5-dioxido-1,4-dihydrothiochromeno[4,3-c]pyrazol-3-yl)(4-oxa-7-azaspiro[2.5]octan-7-yl)methanone]: the IC50 is 0.0265 µM in test [1], 1.74 µM in test [2], 1.52 µM in test [3] and greater than 10 µM in test [4].

Regarding `Cc1ccc2c(c1)S(=O)(=O)Cc1c(C(=O)N3CCOC4(CC4)C3)nn(-c3ccc(CN4CCOCC4)cc3)c1-2` [Example 9, (7-methyl-1-(4-(morpholinomethyl)phenyl)-5,5-dioxido-1,4-dihydrothiochromeno[4,3-c]pyrazol-3-yl)(4-oxa-7-azaspiro[2.5]octan-7-yl)methanone], the IC50 is 0.025 µM in test [1], 1.55 µM in test [2], 1.76 µM in test [3] and greater than 10 µM in test [4].

As for `O=C(c1nn(-c2ccc(CN3CCOCC3)cc2)c2c1CS(=O)(=O)c1c-2ccc(Cl)c1F)N1CCOC2(CC2)C1` [Example 11, (7-chloro-6-fluoro-1-(4-(morpholinomethyl)phenyl)-5,5-dioxido-1,4-dihydrothiochromeno[4,3-c]pyrazol-3-yl)(4-oxa-7-azaspiro[2.5]octan-7-yl)methanone], the IC50 in test [1] was 0.0105 µM; in test [2] it was 0.736 µM; in test [3], 0.441 µM; in test [4], 8.92 µM.

Regarding `Cc1cccc2c1-c1c(c(C(=O)N3CCOC4(CC4)C3)nn1-c1ccc(CN3CCOCC3)cc1)CS2(=O)=O` [Example 12, (9-methyl-1-(4-(morpholinomethyl)phenyl)-5,5-dioxido-1,4-dihydrothiochromeno[4,3-c]pyrazol-3-yl)(4-oxa-7-azaspiro[2.5]octan-7-yl)methanone], the IC50 in test [1] (setting [5]) was 0.0058 µM.
